Source: the supplement of paper PMC10307832

Tests used:
Test in all cases: relative viability (nuclei count vs DMSO), 5 days (fraction); higher = more cells survive
Dactolisib + Pemetrexed = compound: Cn1c(=O)n(-c2ccc(C(C)(C)C#N)cc2)c2c3cc(-c4cnc5ccccc5c4)ccc3ncc21 [Dactolisib] + Nc1nc2[nH]cc(CCc3ccc(C(=O)N[C@@H](CCC(=O)O)C(=O)O)cc3)c2c(=O)[nH]1 [Pemetrexed] (partner 0.2 µM)
In short: (§1)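 Lung cancer cell lines were pin-tool dosed in 1536-well plates on the day after seeding, with either a lone drug or a fixed anchor-drug dose plus five library-drug doses (not always all listed) in √10 steps. Nuclei were counted on 4× images after 5 days. Relative viability is the ratio of treated-well to vehicle-well nuclei counts, with each value a median of duplicate plates.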

AZ505 + Alpelisib = compound: C1CCC(CC1)N(CCNCCC2=C3C(=C(C=C2)O)NC(=O)CO3)C(=O)CCNCCC4=CC(=C(C=C4)Cl)Cl [AZ505] + Cc1nc(NC(=O)N2CCC[C@H]2C(N)=O)sc1-c1ccnc(C(C)(C)C(F)(F)F)c1 [Alpelisib] (partner 2 µM)
In short: as §1

AZ505 = compound: C1CCC(CC1)N(CCNCCC2=C3C(=C(C=C2)O)NC(=O)CO3)C(=O)CCNCCC4=CC(=C(C=C4)Cl)Cl [AZ505]
In short: (§2)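 A plate was accepted only when its control CV was below 25% and the cells had doubled at least once. Viability is defined from nuclear counts as treated wells divided by vehicle wells, with the median taken across plates. That median covers lung cancer cell lines grown in 1536-well plates, dosed by pinning at five √10-spaced library-drug concentrations, and counted in MetaXpress from 4× Hoechst images after 5 days.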

Dactolisib = compound: Cn1c(=O)n(-c2ccc(C(C)(C)C#N)cc2)c2c3cc(-c4cnc5ccccc5c4)ccc3ncc21 [Dactolisib]
In short: as §2

| Cell Line | relative viability (Dactolisib + Pemetrexed; first compound 0.002 µM) | relative viability (Dactolisib + Pemetrexed; first compound 0.006325 µM) | relative viability (Dactolisib + Pemetrexed; first compound 0.02 µM) | relative viability (Dactolisib + Pemetrexed; first compound 0.06325 µM) | relative viability (Dactolisib + Pemetrexed; first compound 0.2 µM) | relative viability (AZ505 + Alpelisib; first compound 0.08 µM) | relative viability (AZ505 + Alpelisib; first compound 0.253 µM) | relative viability (AZ505 + Alpelisib; first compound 0.8 µM) | relative viability (AZ505 + Alpelisib; first compound 2.53 µM) | relative viability (AZ505 + Alpelisib; first compound 8 µM) | relative viability (AZ505; 0.08 µM) | relative viability (AZ505; 0.253 µM) | relative viability (AZ505; 0.8 µM) | relative viability (AZ505; 2.53 µM) | relative viability (AZ505; 8 µM) | relative viability (Dactolisib; 0.002 µM) | relative viability (Dactolisib; 0.006325 µM) | relative viability (Dactolisib; 0.02 µM) | relative viability (Dactolisib; 0.06325 µM) | relative viability (Dactolisib; 0.2 µM) |
| --- | --- | --- | --- | --- | --- | --- | --- | --- | --- | --- | --- | --- | --- | --- | --- | --- | --- | --- | --- | --- |
| COR-L23 | 0.194 | 0.198 | 0.195 | 0.197 | 0.183 | 0.532 | 0.646 | 0.463 | 0.624 | 0.598 | 0.947 | 0.97 | 0.893 | 0.933 | 0.95 | 1.15 | 1.06 | 0.911 | 0.27 | 0.249 |
| BEN | 0.714 | 0.757 | 0.603 | 0.639 | 0.434 | 0.947 | 1.01 | 0.959 | 1.02 | 1.2 | 0.873 | 0.97 | 0.905 | 1.1 | 1.05 | 1.02 | 0.883 | 0.81 | 0.536 | 0.366 |
| LK-2 | 0.278 | 0.263 | 0.249 | 0.117 | 0.171 | 0.968 | 0.923 | 1.29 | 1.13 | 1.16 | 0.974 | 1.17 | 0.941 | 1.09 | 1.11 | 0.905 | 0.877 | 0.846 | 0.433 | 0.253 |
| NCI-H322M | 0.664 | 0.641 | 0.643 | 0.523 | 0.474 | 0.757 | 0.774 | 0.688 | 0.844 | 0.79 | 0.906 | 0.824 | 0.954 | 0.826 | 1.02 | 1.04 | 0.931 | 0.734 | 0.702 | 0.579 |
| NCI-H520 | 0.537 | 0.506 | 0.364 | 0.213 | 0.115 | 0.92 | 0.829 | 0.862 | 0.84 | 0.99 | 0.92 | 1.07 | 0.86 | 1.08 | 1.04 | 1.01 | 0.777 | 0.764 | 0.243 | 0.2 |
| NCI-H1666 | 0.849 | 0.892 | 0.858 | 0.736 | 0.802 | 0.899 | 1.01 | 0.867 | 0.999 | 1.05 | 0.899 | 0.978 | 0.974 | 0.973 | 0.961 | 1.09 | 0.926 | 0.957 | 0.746 | 0.639 |
| NCI-H1993 | 0.554 | 0.496 | 0.49 | 0.345 | 0.421 | 0.544 | 0.729 | 0.753 | 0.741 | 0.608 | 0.871 | 0.888 | 0.903 | 1.02 | 1.09 | 1.01 | 0.702 | 0.663 | 0.59 | 0.603 |
| NCI-H1975 | 0.299 | 0.32 | 0.297 | 0.244 | 0.181 | 0.578 | 0.689 | 0.651 | 0.651 | 0.654 | 0.831 | 0.848 | 0.951 | 0.901 | 0.972 | 0.922 | 0.957 | 0.824 | 0.483 | 0.315 |
| HCC-44 | 0.609 | 0.645 | 0.596 | 0.695 | 0.672 | 0.734 | 0.751 | 0.75 | 0.901 | 0.869 | 0.951 | 0.945 | 0.934 | 1.01 | 1.02 | 0.979 | 1.01 | 1.03 | 0.688 | 0.929 |
